The results in this text go back to ChEMBL document CHEMBL1770065, “Discovery of a clinical candidate from the structurally unique dioxa-bicyclo[3.2.1]octane class of sodium-dependent glucose cotransporter 2 inhibitors” (J Med Chem, 2011).

Each structure is given as a SMILES string.

Series [1] addresses T1, Sodium/glucose cotransporter 1 (Homo sapiens, UniProt P13866).
T1 sequence (P13866 whole entry): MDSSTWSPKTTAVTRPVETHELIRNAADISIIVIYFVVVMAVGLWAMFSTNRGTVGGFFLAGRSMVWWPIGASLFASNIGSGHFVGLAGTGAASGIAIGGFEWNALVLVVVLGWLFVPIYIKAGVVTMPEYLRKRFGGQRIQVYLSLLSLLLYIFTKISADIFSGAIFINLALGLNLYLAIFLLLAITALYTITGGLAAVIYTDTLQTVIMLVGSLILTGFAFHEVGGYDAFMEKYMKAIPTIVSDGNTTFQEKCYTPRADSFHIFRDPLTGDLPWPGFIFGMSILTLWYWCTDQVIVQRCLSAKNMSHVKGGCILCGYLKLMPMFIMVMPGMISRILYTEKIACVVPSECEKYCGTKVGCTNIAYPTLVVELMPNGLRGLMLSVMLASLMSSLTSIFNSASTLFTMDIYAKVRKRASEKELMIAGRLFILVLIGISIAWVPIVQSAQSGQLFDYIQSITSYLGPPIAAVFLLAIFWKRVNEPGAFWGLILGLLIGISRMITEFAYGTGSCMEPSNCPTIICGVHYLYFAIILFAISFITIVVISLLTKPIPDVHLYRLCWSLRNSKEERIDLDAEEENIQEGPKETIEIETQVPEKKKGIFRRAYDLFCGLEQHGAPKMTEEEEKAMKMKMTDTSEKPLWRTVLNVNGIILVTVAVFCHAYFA
The series can be described thus: Inhibition of human SGLT1 expressed in CHO cells assessed as inhibition of methyl alpha-D-glucopyranoside uptake after 1 hr. In kind it is cell-based.

Series [2] has as its system Plasma. Kind of series: Fraction unbound in rat plasma at 1000 ng/mL by equilibrium dialysis method. The series is classed as ADME, cell-free.
A short description of series [3]: Apparent intrinsic clearance in human liver microsomes assessed per mg of protein. The series is classed as ADME, Microsome.
A short description of series [4]: Lipophilicity, log D of the compound. In kind it is physicochemical. The following applies: octanol/water.
Series [5] can be described thus: Apparent intrinsic clearance in human hepatocytes assessed per million of cells. The series is classed as ADME, cell-based, Liver, Hepatocyte.
The target of series [6] is T2, Sodium/glucose cotransporter 2 (Homo sapiens, UniProt P31639).
T2 sequence (P31639 whole entry): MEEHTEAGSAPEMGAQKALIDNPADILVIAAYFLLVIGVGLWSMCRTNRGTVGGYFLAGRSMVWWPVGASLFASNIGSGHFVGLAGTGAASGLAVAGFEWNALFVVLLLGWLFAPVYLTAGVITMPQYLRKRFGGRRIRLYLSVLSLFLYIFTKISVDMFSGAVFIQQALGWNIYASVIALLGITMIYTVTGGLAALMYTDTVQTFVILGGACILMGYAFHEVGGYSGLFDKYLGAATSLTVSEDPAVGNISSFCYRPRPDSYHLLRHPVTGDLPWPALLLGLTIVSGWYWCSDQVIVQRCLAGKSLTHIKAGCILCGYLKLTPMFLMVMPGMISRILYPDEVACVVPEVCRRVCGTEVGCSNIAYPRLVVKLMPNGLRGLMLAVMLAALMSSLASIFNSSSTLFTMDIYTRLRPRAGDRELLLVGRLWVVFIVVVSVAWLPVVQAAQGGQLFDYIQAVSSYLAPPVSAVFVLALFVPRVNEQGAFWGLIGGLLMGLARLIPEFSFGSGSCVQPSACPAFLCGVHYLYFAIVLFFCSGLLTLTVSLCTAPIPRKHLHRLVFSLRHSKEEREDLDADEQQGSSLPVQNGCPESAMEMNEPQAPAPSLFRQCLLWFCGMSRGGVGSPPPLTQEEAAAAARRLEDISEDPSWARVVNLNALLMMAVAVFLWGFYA
Kind of series: Inhibition of human SGLT2 expressed in CHO cells assessed as inhibition of methyl alpha-D-glucopyranoside uptake after 1 hr. In kind it is cell-based.

For series [7], the system named is Plasma. Kind of series: Fraction unbound in human plasma at 1000 ng/mL by equilibrium dialysis method. In kind it is ADME, cell-free.
Series [8] is described as follows: Half life in Sprague-Dawley rat at 2 mg/kg, iv. In kind it is ADME, organism-based. Also on record: dose 2 mg/kg, route intravenous. The following applies: in vivo.
Series [9] can be described thus: Renal clearance in Sprague-Dawley rat at 2 mg/kg, iv. Also on record: dose 2 mg/kg, route intravenous. The series is classed as ADME, organism-based, Kidney. The following applies: in vivo.
The next series deals with Rattus norvegicus. Kind of series: Hepatic clearance in Sprague-Dawley rat at 2 mg/kg, iv. The series is classed as ADME, organism-based, Liver. Also on record: dose 2 mg/kg, route intravenous. The following applies: in vivo.

Turning to `COc1ccc(Cc2cc([C@]34OC[C@](CO)(O3)[C@@H](O)[C@H](O)[C@H]4O)ccc2C)cc1`, the values for the IC50 in series [1] and in series [6] were 506 nM and 1.07 nM, respectively. In addition, the Fu with Plasma [2] was 18.6%; in the series with Plasma [7], 20.6%. For the same molecule, in series [3], the microsomal CLint was less than 8 µL/min/mg. In series [4], the logD was 2.6. In addition, the hepatocyte CLint in [5] is 2.1 µL/min/1e6 cells.

In the case of `CCOc1ccc(Cc2cc([C@]34OC[C@](CO)(O3)[C@@H](O)[C@H](O)[C@H]4O)ccc2C)cc1`, the figures for the IC50 in series [1] and in series [6] were 958 nM and 1.11 nM, respectively. Further, in series [3], the microsomal CLint stood at 8.9 µL/min/mg. In addition, in [4], the logD worked out at 3. Also, in [5], the hepatocyte CLint turned out to be 2 µL/min/1e6 cells.

In the case of `COc1ccc(Cc2cc([C@@H]3O[C@H](CO)[C@@H](O)[C@H](O)[C@H]3O)ccc2C)cc1`, the microsomal CLint in [3] is less than 8 µL/min/mg. Moreover, the logD in [4] was 2.4. In addition, in series [5], the hepatocyte CLint stood at 3.4 µL/min/1e6 cells.

In the case of `COc1ccc(Cc2cc([C@]34OC[C@](CO)(O3)[C@@H](O)[C@H](O)[C@@H]4O)ccc2Cl)cc1`, the IC50 in series [1] was greater than 10000 nM; in series [6], 43.1 nM. For the same molecule, the microsomal CLint in series [3] turned out to be 15 µL/min/mg. This molecule also gave a logD in [4] of 3.9. The hepatocyte CLint in series [5] was 2.3 µL/min/1e6 cells.

Regarding `COc1ccc(Cc2cc([C@@H]3O[C@H](CO)[C@@H](O)[C@H](O)[C@H]3O)ccc2Cl)cc1`, the microsomal CLint in [3] was less than 9 µL/min/mg. The logD in [4] is 3. Also, the hepatocyte CLint in [5] was less than 2 µL/min/1e6 cells.

On to `CCOc1ccc(Cc2cc([C@]34OC[C@](CO)(O3)[C@@H](O)[C@H](O)[C@@H]4O)ccc2Cl)cc1`, for which the IC50 is greater than 10000 nM in series [1] and 89.9 nM in series [6]. The molecule also came in with a logD in series [4] of 3.8.

`CCc1ccc(Cc2cc([C@@H]3OC4(CNC4)[C@@H](O)[C@H](O)[C@H]3O)ccc2C)cc1`: the microsomal CLint in [3] came to 32 µL/min/mg. In series [4], this molecule displayed a logD of 3.2. The hepatocyte CLint in series [5] is less than 2 µL/min/1e6 cells.

Consider `COc1ccc(Cc2cc([C@@H]3OC4(COC4)[C@@H](O)[C@H](O)[C@H]3O)ccc2C)cc1`, for which the half-life in [8] is 1.9 h. The molecule also registered a CL renal in series [9] of 1.8 mL/min/kg. Moreover, the microsomal CLint in series [3] came out at 12 µL/min/mg. In [4], the logD worked out at 3. The hepatocyte CLint in series [5] turned out to be 44 µL/min/1e6 cells. Also, in series [6], the IC50 was 6.98 nM. The CL in the series with Rattus norvegicus was 20.5 mL/min/kg.

`COc1ccc(Cc2cc([C@]34OC[C@](CO)(O3)[C@@H](O)[C@H](O)[C@H]4O)ccc2Cl)cc1` gave a half-life in [8] of 1.6 h. Moreover, the microsomal CLint in [3] is 9.2 µL/min/mg. The logD in series [4] is 3.2. Also, the hepatocyte CLint in [5] worked out at 2 µL/min/1e6 cells. Also, the IC50 in series [6] turned out to be 0.882 nM.

As a reminder, the IC50 is the concentration needed to halve the response being measured. As a reminder, the microsomal CLint is a measure of how fast metabolising enzymes remove a compound, apart from limits set by blood flow. What is called logD is the decadic logarithm of the distribution of all forms, ionised or not, between an organic phase and buffer at a given pH. The low end stands for a more hydrophilic compound, the high end for a more lipophilic compound. Broadly, the hepatocyte CLint is a measure of how fast metabolising enzymes remove a compound, apart from limits set by blood flow. Broadly, the half-life is the time in which the quantity being followed falls by half. A low value points to fast loss.
